Patent publication US4871388A, “Herbicidal liquid concentrate compositions” (priority 1987, dated 1989)

Key:
[1] = Dilution in water of solutions of the ester(s) to normal agricultural tank-mix rates; type: physicochemical; details: solvents with >15% solubility; normal agricultural tank-mix rates (1:9-1:99)
[2] = Solubility of the isomeric mixture at room temperature in various solvents (Table I); type: physicochemical
Source text: |at Room Temperature in Various Solvents

[3] = Initial solubility and dissolution in water of 7.5 g of liquid concentrate compositions utilizing 1 molar equivalent of different acids (Table II); details: solvents with greater than 20% by weight solubility; without addition of 0.2 to 1.0 molar equivalent of acids

isomeric mixture of 6-(5-isopropyl-5-methyl-4-oxo-2-imidazolin-2-yl)-m-toluic acid, methyl ester and 2-(5-isopropyl-5-methyl-4-oxo-2-imidazolin-2-yl)-p-toluic acid, methyl ester
precipitate formation on dilution in water [1]: unsprayable precipitates are formed | limited solubility by weight ([2]; in many of the solvents listed in Table I): ≤ 15% | % Solubility by Weight ([2]; solvent: 1-Formylpiperidine): > 15% | % Solubility by Weight ([2]; solvent: 1-propanol): > 15% | % Solubility by Weight ([2]; solvent: Amyl acetate): 5% | % Solubility by Weight ([2]; solvent: Amyl alcohol (mixed)): > 15% | % Solubility by Weight ([2]; solvent: Anisole): 5% | % Solubility by Weight ([2]; solvent: Aromatic 150): 5% | % Solubility by Weight ([2]; solvent: Chloroform): > 15% | % Solubility by Weight ([2]; solvent: Diethyl succinate): 5% | % Solubility by Weight ([2]; solvent: Dimethyl sulfoxide): > 15% | % Solubility by Weight ([2]; solvent: Dimethylformamide): > 15% | % Solubility by Weight ([2]; solvent: Methanol): > 15% | % Solubility by Weight ([2]; solvent: Methyl cellosolve): > 15% | % Solubility by Weight ([2]; solvent: Methyl oleate): 5% | % Solubility by Weight ([2]; solvent: N-methylpyrrolidone): > 15% | % Solubility by Weight ([2]; solvent: Oleic acid): 5% | % Solubility by Weight ([2]; solvent: Penn Drake Oil (Kerosene)): 5% | % Solubility by Weight ([2]; solvent: Propylene glycol): 5% | % Solubility by Weight ([2]; solvent: Tenneco 500/1000): 5% | % Solubility by Weight ([2]; solvent: Triethanolamine): 5% | % Solubility by Weight ([2]; solvent: Xylene): 5% | dissolution characteristics of the resulting concentrate [3]: not satisfactory
